Data set [1] has as its system DMD subjects. The settings on record: cited from earlier work.
Data set [2] has as its system DMD participants. The settings on record: cited from earlier work.
The target of data set [3] is T1, mineralocorticoid receptor (Homo sapiens, UniProt P08235).
T1 sequence (P08235 1-984): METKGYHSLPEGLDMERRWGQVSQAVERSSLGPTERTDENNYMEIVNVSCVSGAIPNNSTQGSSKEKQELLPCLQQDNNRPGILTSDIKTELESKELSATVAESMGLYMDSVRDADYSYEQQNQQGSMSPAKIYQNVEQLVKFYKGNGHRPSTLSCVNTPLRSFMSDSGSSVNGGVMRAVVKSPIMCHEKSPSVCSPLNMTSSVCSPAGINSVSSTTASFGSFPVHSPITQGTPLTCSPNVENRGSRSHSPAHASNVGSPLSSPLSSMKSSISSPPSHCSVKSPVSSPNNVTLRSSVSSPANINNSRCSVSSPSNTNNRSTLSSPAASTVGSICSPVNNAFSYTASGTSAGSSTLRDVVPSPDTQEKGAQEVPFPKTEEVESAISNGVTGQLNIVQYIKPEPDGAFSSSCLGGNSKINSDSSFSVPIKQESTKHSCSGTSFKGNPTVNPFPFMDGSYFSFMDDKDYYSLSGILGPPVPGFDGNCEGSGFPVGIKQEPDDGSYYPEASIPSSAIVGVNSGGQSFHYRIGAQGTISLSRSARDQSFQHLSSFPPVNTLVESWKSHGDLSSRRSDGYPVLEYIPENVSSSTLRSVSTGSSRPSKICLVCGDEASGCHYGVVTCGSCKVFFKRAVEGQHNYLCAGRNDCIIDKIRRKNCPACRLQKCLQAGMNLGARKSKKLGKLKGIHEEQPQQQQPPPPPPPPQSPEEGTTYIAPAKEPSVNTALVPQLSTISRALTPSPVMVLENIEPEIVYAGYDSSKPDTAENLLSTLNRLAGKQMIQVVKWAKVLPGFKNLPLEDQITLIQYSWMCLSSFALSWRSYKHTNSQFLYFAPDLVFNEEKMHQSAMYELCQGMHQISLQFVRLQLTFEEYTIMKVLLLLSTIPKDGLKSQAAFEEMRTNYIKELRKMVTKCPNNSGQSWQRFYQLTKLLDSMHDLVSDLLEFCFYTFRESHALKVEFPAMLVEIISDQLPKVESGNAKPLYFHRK
As to conditions: background statement; cited from earlier work.

The subject of data set [4] is ambulant boys with DMD. As to conditions: male, human, in vivo, 24 weeks.
Data set [5] relates to ambulant boys with DMD. The experiment in a line: VBP15-004 adverse events and behavior AESIs. As to conditions: PDN 0.75 mg, N = 31, 24 weeks.
Data set [6] relates to ambulant boys with DMD. The experiment in a line: VBP15-004 growth (height Z score). It is filed as in vivo, human. The settings on record: prednisone 0.75 mg/kg/day.
Data set [7] has as its system DMD participants. The experiment in a line: Prespecified safety evaluation: height percentile for age and BMI z-score. It is filed as in vivo, human. As to conditions: for Mean BMI z-score, change from baseline (SD): 0.75 mg/kg/day. The method, then: As with the […] comparators, group-matching criteria were prespecified in the iSAP, and 2 independent statisticians carried out the participant matching. […] There was no corresponding 12-month assessment in vamorolone-treated participants. (Assessments of vamorolone-treated trial participants were 0, 3, 6, and 18 months). Standing height and weight were assessed at each study visit. Height z-score, body mass index (BMI: kg/m^2), and BMI z-score were calculated centrally. AE reporting was done per protocol in the vamorolone trials. The current study is the first to evaluate the longer-term tolerability, efficacy, and safety of vamorolone in DMD. […] Given the variable timing of dose escalations, it was prespecified that initial analyses of drug-related efficacy and safety would be limited to those participants who had 18 months of treatment with 2.0 mg/kg/day vamorolone or more (dose group C+dose group D: n=23). Outcomes for these participants were compared to a group-matched cohort from the […] over 18 months (corticosteroid-naïve, n=19: corticosteroid-treated, n=68). Participants were matched for age and treatment period (+1 month), matching criteria were prespecified in the statistical analysis plan. Two independent statisticians carried out the matching. […] Participants in the corticosteroid-treated […] group were treated for at least 18 months, but the total duration, dose, and regimens varied. Statistical analyses were done on paired longitudinal outcome data using an analysis of covariance (ANCOVA) approach with change from baseline (VBP15-002) to month 18 (midpoint of VBP15-LTE). Baseline response and age were included as covariates. For the vamorolone-treated participants, age was calculated as (date of informed consent minus birthdate)/365.25. For the DNHS participants, age was calculated as (date of baseline visit used minus birthdate)/365.25. The baseline visit for a DNHS participant was the first visit. […] Timed function tests were analyzed as velocity scores to limit the impact of participants who could not perform the test (velocity=0). Velocity measures are variance-stabilizing transformations, suppressing extreme raw outliers from raw values in seconds; these help with distributional assumptions of the statistical models/tests used. Raw data (seconds) are also reported. Velocity scores for […] (event/second), TTRW (meters/second), and […] (event/second) were inputted as 0 at the first response missing due to inability to perform the test. All other data were observed values only, without imputation. No adjustments for multiplicity on inferential statistics were specified in the iSAP.

[8] abbreviates: CINRG DNHS, deflazacort n = 94, prednisone n = 80.
The mark [9] stands for this setting: Griggs et al. 2016, 12-month trial, 0.9 mg/kg/day deflazacort (n = 68), 0.75 mg/kg/day prednisone (n = 63).
[10] abbreviates: CINRG prednisone trial, daily 0.75 mg/kg/day, 12 months.
Setting [11] is: vamorolone 18-month treatment versus prednisone trial 12-month treatment, ANCOVA.

Like-named read-outs stand apart in the source and are kept apart here.

Turning to `CC(=O)OCC(=O)[C@@]12N=C(C)O[C@@H]1C[C@H]1[C@@H]3CCC4=CC(=O)C=C[C@]4(C)[C@H]3[C@@H](O)C[C@@]12C` [Deflazacort, deflazacort], the “LS Mean change in height percentiles for age” value in data set [1] (DMD children treated with deflazacort, N = 40, 12 months treatment) is −11.4. Moreover, the “change in height percentile over a 12-month treatment period” value in data set [1] (Griggs et al. 2016, DMD) is −11.43 percentile. Further, in data set [2] (setting [8]), the “Incidence of physician-reported Cushingoid” value is 72%, the “Incidence of physician-reported behavior change” value is 33% and the “Incidence of physician-reported weight gain” value is given as 63%. Besides, in data set [2] (setting [9]), the “Incidence of physician-reported Cushingoid” value is listed as 60.3%, the “Incidence of physician-reported behavior change” value is reported as 9%, the “Incidence of physician-reported hypertrichosis/hirsutism” value is recorded as 35% and the “Incidence of physician-reported weight gain” value was 27.9%. Moreover, the “activity at the mineralocorticoid receptor” value in data set [3] is “agonists”.

As to `C[C@]12C=CC(=O)C=C1CC[C@@H]1[C@@H]2C(=O)C[C@@]2(C)[C@H]1CC[C@]2(O)C(=O)CO` [Prednisone, prednisone, reference compound], in data set [4], the “clinically relevant psychiatric events, subjects” value is 19.4%; the “incidence of behavior problems” value is 32.3%; the “moderate/severe behavior problems, subjects” value amounted to 22.6%. Besides, the “Any Behavior AESI, moderate/severe: F (AE count)” value in data set [5] was 8. Further, the “change in height Z scores from baseline to Week 24” value in data set [6] is “growth deceleration”. In data set [7] (setting [10]), the “Mean BMI z-score, value (SD) at 12 months of treatment” value is 1.068 (1.05); the “Mean height percentile for age, change from baseline (SD)” value is −3.76 (10.44); the “Mean height percentile for age, value (SD) at 12 months of treatment” value is recorded as 26.14 (24.21); the “Mean BMI z-score, change from baseline (SD)” value is on record as 0.459 (0.407). Also, the “Mean BMI z-score, change from baseline (SD)” value in data set [7] (CINRG prednisone trial, daily 0.75 mg/kg/day, 12 months, listed as prednisone) is 0.46. Moreover, in data set [7] (setting [11]), the “Mean BMI z-score, LS mean difference (SE)” value was 0.066 (0.193) and the “Mean height percentile for age, LS mean difference (SE)” value is given as 10.37 (3.86). Also, in data set [3], the “activity at the mineralocorticoid receptor” value is on record as “agonists”.
